In the assay the test system is EHP spores. Nature of the assay: In vitro inactivation of polar tube extrusion of EHP spores. The conditions noted are these: for polar tube extrusion rate: Batch 1 spores (high saline culture), 2 hours at 37° C.; for % of extrusion post-incubation: Batch 2 spores (low saline culture); for polar tube extrusion of EHP spores compared to DMSO control: p>0.05. Type of assay: cell-based, Enterocytozoon hepatopenaei. On the procedure:
The mechanism of EHP infection involves extrusion of polar tube (adhesive mechanism). In an in vitro study, inactivation of polar tube extrusion of EHP spores were tested with selected active ingredients namely thymoquinone, cinnamic aldehyde, eugenol, and carvacrol. The stock solution of bioactive molecules was prepared in dimethyl sulfoxide (DMSO) and further working solution prepared with 1× sterile phosphate buffer saline (1×PBS).
EHP spores were isolated and purified from HP of infected shrimps from high saline shrimp culture system (Batch 1) and low saline shrimp culture system (Batch 2). Purified spores were then incubated with the test molecules at a desired concentration for 2 hours at 37° C. Washed spores were then induced for polar tube extrusion with alkaline agent. The extrusion of the spore polar tubes was determined under a light microscope at 100× magnification by counting the number of extruded spores from a total of 100 spores and converting the number into % of extrusion.
Statistical analysis. The One-way analysis of variance (ANOVA) and t-Test were performed to determine the significant differences at a 95% confidence interval of % polar tube extrusion between spores treated with bioactive molecules and the corresponding DMSO control. The analyses were carried out using STATGRAPHICS centurion.

For `CC1=CC(=O)C(C(C)C)=CC1=O` [Thymoquinone], the “polar tube extrusion rate” value was determined as 43.92% (10 ppm) and 6.34% (100 ppm). For the same compound, the “% of extrusion post-incubation” value was found to be 40.31% (10 ppm, 2% DMSO control 86.47%) and 0.31% (100 ppm, 20% DMSO control 88.32%).

For the compound `Cc1ccc(C(C)C)cc1O` [Carvacrol], the “polar tube extrusion of EHP spores compared to DMSO control” value (100 ppm) is “slight reduction”. In the case of `O=C/C=C/c1ccccc1` [Cinnamic aldehyde], the “polar tube extrusion of EHP spores compared to DMSO control” value (100 ppm) was “slight reduction”. As for `C=CCc1ccc(O)c(OC)c1` [Eugenol], where the note is “100 ppm”, the “polar tube extrusion of EHP spores compared to DMSO control” value is listed as “slight reduction”.
